Experimental data: PubChem BioAssay AID2060333 (Molecular Pharmacology Branch, DTP, NCI, 2025)
Where “and” joins values, the source holds several entries; their conditions need not be identical. Equal entries are not always repeated.

System: 845751-090-R-J2-PDC tumor spheroid viability
Assay: Anticancer human tumor 845751-090-R-J2-PDC patient-derived head and neck squamous carcinoma cell line growth inhibition [IpAb]
Conditions: spheroids with HUVEC and MSC; for viability, T/C: stronger effect = lower value
From the text: Combinatorial screen of targeted agents with ipatasertib and abemaciclib in multi-cell type tumor spheroids
A high-throughput screen of multi-cell type tumor spheroids was designed to identify active combinations of targeted small molecules and ipatasertib or abemaciclib. Complex spheroids include a stromal component modeled by human endothelial cells (HUVEC) and fibroblasts modeled by human mesenchymal stem cells (MSCs). The concentration ranges selected for each drug and investigational agent were based upon clinically achievable concentrations if the clinical Cmax of the agent was known.
Compounds. The drugs and investigational agents: ipatasertib (NSC767898), abemaciclib(NSC768073), selumetinib (NSC741078), trametinib (758246), adavosertib (NSC754352), everolimus (NSC733504), sapanisertib (NSC764658), vemurafenib (NSC761431), venetoclax (NSC766270), copanlisib (NSC809693), apelisib (NSC765974), palbociblib (NSC758247), vemurafenib (NSC761431), dabrafenib (NSC764134), ravoxertinib (NSC781343), BMS-387032 (NSC767048), sotorasib (NSC818433), talazoparib (NSC767125) and afursertib (NSC778305), were obtained from the National Cancer Institute (NCI) Developmental Therapeutics Program Chemical Repository. The FDA-approved anticancer drug set is available from the NCI Developmental Therapeutics Program. […] The stock solutions were prepared in dimethyl sulfoxide (DMSO, Sigma-Aldrich, St. Louis, MO, cat. D2650) at 800-fold the tested concentration and stored at -70 degrees C prior to their use. All drugs and investigational agents were tested over a range starting from a high concentration at or near the clinical Cmax and decreasing in half-log increments. If the clinical Cmax for an agent had not been determined, the highest concentration tested was 10 microM.
NCI60 Cell Culture. NCI60 cell lines were obtained from the NCI Developmental Therapeutics Program Tumor Repository. For each lot of cells, the Repository performed Applied Biosystems AmpFLSTR Identifiler testing with PCR amplification to confirm consistency with the published Identifier STR profile for each cell line. Cells were kept in continuous culture for no more than 20 passages. The optimal seeding densities for each of the cell lines at each time point assessed were determined prior to performing the concentration response studies. Briefly, the NCI60 human tumor lines were grown as monolayers in RPMI 1640 medium supplemented with 10% FBS and 2 mmol/L L-glutamine.
An additional 9 lines were from the NCI60 cell line panel including MDA-MB-231 breast carcinoma, MDA-MB-468 breast carcinoma, MCF7 breast carcinoma, Hs578T breast carcinoma, MALME-3M melanoma, SK-MEL-2 melanoma, SK-OV-3 ovarian carcinoma, DU-145 prostate carcinoma, PC-3 prostate carcinoma, all cell lines along with major genetic alterations are listed on Table 2. Pooled donor human umbilical vein endothelial cells (HUVEC, Lonza, cat. CC-2519) and human mesenchymal stem cells (hMSC, Lonza, cat. PT-2501) were purchased from Lonza (Walkersville, MD).
PDMR cell lines were grown in complete medium (DC medium): Dulbecco's modified Eagle's medium (DMEM)/F12 supplemented with 5% fetal bovine serum (FBS), 2 mM L-glutamine, 100 U/mL penicillin and 100 µg/ml streptomycin, 0.4 µg/ml hydrocortisone, 10 ng/ml epidermal growth factor (EGF) recombinant human protein, 24 µg/mL adenine, and 0.1 mg/mL primocin. During culture from frozen stock vials, PDMR cells were cultured in the same medium containing 10 µM Y-27632 (see Table 3). The PDCs were cultured in complete DMEM/F12 media without 10 microM Y-27632 dihydrochloride for at least two passages prior to the screen. The pooled donor HUVEC and hMSC were cultured in endothelial cell growth medium 2 (PromoCell, Heidelberg, Germany, cat. C-22011) and mesenchymal stem cell growth medium 2 (PromoCell, cat. C-28009), respectively. For all experiments, HUVEC and hMSC were used at passages </=5.
[…]
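Also: spheroids exposed to compounds for 7 days before readout.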
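For viability, T/C in this document: CTG3D luminescence normalised so that 100% = DMSO vehicle control.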

Row | SMILES | IC50 (curve of compound) | viability, T/C (compound 0.0316 µM) | viability, T/C (compound 0.1 µM) | viability, T/C (compound 0.316 µM) | viability, T/C (compound 1 µM) | viability, T/C (compound 3.16 µM) | viability, T/C (compound 10 µM) | further results
1 | C=CCn1c(=O)c2cnc(Nc3ccc(N4CCN(C)CC4)cc3)nc2n1-c1cccc(C(C)(C)O)n1 | > 10000 nM | 98.5% and 92.5% | 75.5% and 64.4% | 70.1% and 55.9% | 68.8% and 58.6% | 68.3% and 69.5% | 49.5% and 53.6% | –
2 | CC(C)(C)c1cnc(CSc2cnc(NC(=O)C3CCNCC3)s2)o1 | 95.6 nM and 145 nM | – | – | – | – | – | – | viability, T/C (compound 0.00949 µM): 133% and 138%; viability, T/C (compound 0.03 µM): 147% and 141%; viability, T/C (compound 0.0949 µM): 50.3% and 77.6%; viability, T/C (compound 0.3 µM): 1.67% and 2.96%; viability, T/C (compound 0.949 µM): 1.36% and 1.78%; viability, T/C (compound 3 µM): 0.89% and 2.1%
3 | CC(C)NCC(C(=O)N1CCN(c2ncnc3c2C(C)CC3O)CC1)c1ccc(Cl)cc1 (stereo not given) | – | – | – | – | 30.2% [middle of 13 runs] | 23.3% [middle of 13 runs] | 14.6% [middle of 13 runs] | –
4 | CC(C)n1nc(-c2ccc3oc(N)nc3c2)c2c(N)ncnc21 | 16.2 nM and 7.32 nM | 49.8% and 32.9% | 26% and 20.3% | – | – | – | – | viability, T/C (compound 0.000316 µM): 108% and 77.2%; viability, T/C (compound 0.001 µM): 81.4% and 72.8%; viability, T/C (compound 0.00316 µM): 58.9% and 50.4%; viability, T/C (compound 0.01 µM): 57.2% and 53.4%
5 | CCN1CCN(Cc2ccc(Nc3ncc(F)c(-c4cc(F)c5nc(C)n(C(C)C)c5c4)n3)nc2)CC1 | – | – | – | – | – | – | – | IC50 (compound alone, run of 05/18/2021): > 1000 nM
6 | Cc1nc(NC(=O)N2CCCC2C(N)=O)sc1-c1ccnc(C(C)(C)C(F)(F)F)c1 (stereo not given) | 138 nM and 262 nM | 79.1% and 55.6% | 54.8% and 65.7% | 36.8% and 46.5% | 25.4% and 25% | 17.9% and 18.6% | 10.7% and 14.8% | –
7 | Cn1cnc2c(F)c(Nc3ccc(Br)cc3Cl)c(C(=O)NOCCO)cc21 | > 3000 nM | – | – | – | – | – | – | viability, T/C (compound 0.00949 µM): 107% and 165%; viability, T/C (compound 0.03 µM): 94.5% and 174%; viability, T/C (compound 0.0949 µM): 75% and 136%; viability, T/C (compound 0.3 µM): 82.8% and 125%; viability, T/C (compound 0.949 µM): 80.4% and 122%; viability, T/C (compound 3 µM): 65.8% and 67.1%

Now from value to compound, other results behind:

Row | IC50 (curve of compound) | SMILES | viability, T/C (compound 0.0316 µM) | viability, T/C (compound 0.1 µM) | viability, T/C (compound 0.316 µM) | viability, T/C (compound 1 µM) | viability, T/C (compound 3.16 µM) | viability, T/C (compound 10 µM) | further results
8 | 6490 nM and > 10000 nM | C=CC(=O)N1CCN(c2nc(=O)n(-c3c(C)ccnc3C(C)C)c3nc(-c4c(O)cccc4F)c(F)cc23)C(C)C1 (stereo not given) | 84.1% and 78.2% | 88.8% and 74.3% | 98.2% and 105% | 95.9% and 88.2% | 82.6% and 77.3% | 30.3% and 68.4% | –
9 | > 300 nM | CC(=O)c1c(C)c2cnc(Nc3ccc(N4CCNCC4)cn3)nc2n(C2CCCC2)c1=O | – | – | – | – | – | – | viability, T/C (compound 0.000949 µM): 86.5% and 84.4%; viability, T/C (compound 0.003 µM): 81.2% and 104%; viability, T/C (compound 0.00949 µM): 109% and 90.3%; viability, T/C (compound 0.03 µM): 133% and 91.8%; viability, T/C (compound 0.0949 µM): 112% and 101%; viability, T/C (compound 0.3 µM): 165% and 106%
10 | 8900 nM and 7240 nM | CC1(C)CCC(CN2CCN(c3ccc(C(=O)NS(=O)(=O)c4ccc(NCC5CCOCC5)c([N+](=O)[O-])c4)c(Oc4cnc5[nH]ccc5c4)c3)CC2)=C(c2ccc(Cl)cc2)C1 | 124% and 120% | 111% and 103% | 145% and 85.5% | 198% and 117% | 221% and 138% | 37.6% and 25.7% | –
11 | 5550 nM and 737 nM | CCCS(=O)(=O)Nc1ccc(F)c(C(=O)c2c[nH]c3ncc(-c4ccc(Cl)cc4)cc23)c1F | 134% and 78.5% | 120% and 76.5% | 111% and 63% | 84.5% and 45.3% | 46.7% and 33.6% | 50.4% and 29.4% | –
12 | 17.6 nM and 16.1 nM | COc1c(OCCCN2CCOCC2)ccc2c3n(c(=NC(=O)c4cnc(N)nc4)nc12)CCN3 | 36.9% and 35.4% | 19.8% and 22.2% | 13.8% and 16.1% | 4.09% and 9.06% | – | – | viability, T/C (compound 0.00316 µM): 85.1% and 76.3%; viability, T/C (compound 0.01 µM): 62.6% and 60.3%
13 | 466 nM and 139 nM | Cn1ncc(Cl)c1-c1cc(C(=O)NC(CN)Cc2cccc(F)c2)sc1Cl (stereo not given) | 105% and 86.6% | 76.1% and 51.8% | 52.6% and 32.5% | 38.7% and 29.1% | 16% and 10.7% | 1.14% and 1.09% | –
14 | > 10000 nM | Cn1nccc1Nc1nccc(-c2ccn(C(CO)c3ccc(Cl)c(F)c3)c(=O)c2)n1 (stereo not given) | 128% and 195% | 141% and 196% | 155% and 220% | 168% and 256% | 149% and 198% | 85.6% and 134% | –
15 | > 100 nM | Cn1ncnc1[C@H]1c2n[nH]c(=O)c3cc(F)cc(c23)N[C@@H]1c1ccc(F)cc1 | 100% and 106% | 96.4% and 111% | – | – | – | – | viability, T/C (compound 0.000316 µM): 81.7% and 97.4%; viability, T/C (compound 0.001 µM): 80% and 90.8%; viability, T/C (compound 0.00316 µM): 137% and 113%; viability, T/C (compound 0.01 µM): 105% and 91.3%
